Where two headings read alike, the source gives them in different places.
Key:
human aromatase = target: T1, human aromatase (Homo sapiens, UniProt P11511); assay: In vitro inhibition of human placental aromatase (3H2O release from 1,2[3H]-androstene-3,17-dione); assay type: biochemical; settings: for IC10: 40 min, read-out: AROMATASE IC-10; for IC90: read-out: AROMATASE IC-90
T1 construct: The enzyme preparation was used without further purification; from tissue; host or cells: human placenta, microsomal fraction (100000×g precipitate)
T1 sequence (P11511 1-503): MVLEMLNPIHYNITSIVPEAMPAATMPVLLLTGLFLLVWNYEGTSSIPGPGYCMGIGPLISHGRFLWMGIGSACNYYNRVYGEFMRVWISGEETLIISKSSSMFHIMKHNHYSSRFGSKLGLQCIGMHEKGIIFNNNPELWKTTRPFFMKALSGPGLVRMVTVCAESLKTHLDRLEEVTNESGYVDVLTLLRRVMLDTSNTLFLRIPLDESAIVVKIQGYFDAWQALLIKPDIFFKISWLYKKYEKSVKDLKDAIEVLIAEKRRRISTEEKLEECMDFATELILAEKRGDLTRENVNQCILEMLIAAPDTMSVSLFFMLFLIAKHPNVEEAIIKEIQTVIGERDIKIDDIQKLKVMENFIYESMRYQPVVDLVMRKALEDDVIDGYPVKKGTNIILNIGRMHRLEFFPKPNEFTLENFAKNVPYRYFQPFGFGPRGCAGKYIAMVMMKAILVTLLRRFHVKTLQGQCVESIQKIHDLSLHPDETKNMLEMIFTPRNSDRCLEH
Procedure: Human aromatase enzyme was used. The enzyme was prepared from human placenta, which is rich in the enzyme. Microsomal fraction (100000×g precipitate) was prepared by centrifugation. The enzyme preparation was used without further purification. Test compounds listed in Table 1 were added with 100000 dpm of 1,2[^3 H]-androstene-3,17-dione and NADPH generating system. The concentrations of the test compounds were 0,001; 0,01; 0,1 and 1,0 mM. The incubation was carried out at 37° C. for 40 min. Aromatization of 1,2[^3 H]-androstene-3,17-dione results in the production of ^3 H2 O. The tritiated water and the tritiated substrate are easily separated by a Sep-Pak® minicolumn, which absorbs the steroid but allows free water elution. Radioactivity was counted by a liquid scintillation counter. Aromatase inhibition was evaluated by comparing the ^3 H2 O-radioactivity of inhibitor treated samples to controls containing no inhibitor. IC-10, IC-50 and IC-90 values were calculated as concentrations which inhibited the enzyme activity 10%, 50% and 90%, respectively.

desmolase = assay: Cholesterol side-chain cleavage (desmolase, P450 scc) inhibition; settings: read-out: DESMOLASE IC-50; Table 2; 30 min at 37° C.; human placenta or bovine adrenals as enzyme source, table title says human
α2 = settings: described in EP-194984; cited from earlier work

Structure (SMILES)	IC50 (human aromatase; read-out: AROMATASE IC-50)	IC10 (human aromatase)	IC90 (human aromatase)	further results
Cc1cccc(C(CCc2c[nH]cn2)c2cccc(C)c2C)c1C [Compound 14, 4-[3,3-bis(2,3-dimethylphenyl)propyl]-1H-imidazole]	44 µM			
Cc1ccc(C(CCc2c[nH]cn2)c2ccccc2)cc1 (centres unmarked) [Compound 24, 4-[3-(4-methylphenyl)-3-phenylpropyl]-1H-imidazole]				IC50 (desmolase): 50 µM
Cc1cccc(C(=CCc2c[nH]cn2)c2cccc(C)c2)c1 [Compound 12]		1 µM	1000 µM	IC50 (human aromatase): 62 µM
COc1cccc(C(CCc2c[nH]cn2)c2cccc(OC)c2)c1 [Compound 13, 4-[3,3-bis(3-methoxyphenyl)propyl]-1H-imidazole]	3 µM			
COc1ccc(C(CCc2c[nH]cn2)c2ccc(OC)cc2)cc1 [Compound 22, 4-[3,3-bis(4-methoxyphenyl)propyl]-1H-imidazole]				IC50 (desmolase): 26 µM
COc1cccc(C(CCc2cncn2Cc2ccccc2)c2cccc(OC)c2)c1 [Compound 15, 1-benzyl-5-[3,3-bis(3-methoxyphenyl)propyl]-1H-imidazole]	4 µM			
C(Cc1cncn1Cc1ccccc1)=C(c1ccccc1)c1ccccc1 [Compound 20]				IC50 (human aromatase): 50 µM
C(Cc1c[nH]cn1)=C(c1ccccc1)c1ccccc1 [Compound 4]		< 1 µM	100 µM	IC50 (human aromatase): 6 µM
Cc1ccc(C(CCc2c[nH]cn2)c2ccc(C)cc2)cc1 [Compound 18, 4-[3,3-bis(4-methylphenyl)propyl]-1H-imidazole]				IC50 (desmolase): 48 µM
Cc1cccc(C)c1CCC(O)(CCc1c[nH]cn1)CCc1c(C)cccc1C [Compound 1, 4-[5-(2,6-dimethylphenyl)-3-hydroxy-3-(2,6-dimethylphenylethyl)pentyl]-1H-imidazole]	1000 µM	20 µM	> 1000 µM	
COc1cccc(C(=CCc2cncn2Cc2ccccc2)c2cccc(OC)c2)c1 [Compound 16]				IC50 (human aromatase): 14 µM
Cc1ccccc1C(=CCc1c[nH]cn1)c1ccccc1C [Compound 8]		1.5 µM	> 1000 µM	IC50 (human aromatase): 80 µM
c1ccc(Cn2cncc2CCC(c2ccccc2)c2ccccc2)cc1 [Compound 10, 1-benzyl-5-(3,3-diphenylpropyl)-1H-imidazole]	4 µM	~0.6 µM	100 µM	
c1ccc(C(Cc2c[nH]cn2)c2ccccc2)cc1 [4-(2,2-diphenylethyl)-1H-imidazole]				α2-blocking properties (α2): selective α2 -blocking properties
Cc1cccc(C(CCc2c[nH]cn2)c2cccc(C)c2)c1 [Compound 11, 4-[3,3-bis(3-methylphenyl)propyl]-1H-imidazole]				IC50 (desmolase): 29 µM
Fc1ccc(C(CCc2c[nH]cn2)c2ccccc2)cc1 (centres unmarked) [Compound 26, 4-[3-(4-fluorophenyl)-3-phenylpropyl]-1H-imidazole]				IC50 (desmolase): 440 µM
C(=CC(c1ccccc1)c1ccccc1)c1cncn1Cc1ccccc1 [Compound 28, 1-benzyl-5-(3,3-diphenylpropen-1-yl)-1H-imidazole]	14 µM			
c1ccc(CCC(CCc2cncn2Cc2ccccc2)c2ccccc2)cc1 (centres unmarked) [Compound 21, 1-benzyl-5-(3,5-diphenylpentyl)-1H-imidazole]	17 µM			
COc1ccccc1C(CCc1c[nH]cn1)c1ccccc1OC [Compound 25, 4-[3,3-bis(2-methoxyphenyl)propyl]-1H-imidazole]	8.6 µM			
Fc1cccc(C(CCc2c[nH]cn2)c2cccc(F)c2)c1 [Compound 19, 4-[3,3-bis(3-fluorophenyl)propyl]-1H-imidazole]				IC50 (desmolase): 20 µM
Fc1ccc(C(CCc2c[nH]cn2)c2ccc(F)cc2)cc1 [Compound 27, 4-[3,3-bis(4-fluorophenyl)propyl]-1H-imidazole]				IC50 (desmolase): 30 µM
Cc1cc(C)cc(C(CCc2c[nH]cn2)c2cc(C)cc(C)c2)c1 [Compound 17, 4-[3,3-bis(3,5-dimethylphenyl)propyl]-1H-imidazole]	130 µM			

More lines, main results first:

IC50 (human aromatase; read-out: AROMATASE IC-50)	IC10 (human aromatase)	IC90 (human aromatase)	Structure (SMILES)	further results
	2 µM	600 µM	Clc1ccc(C(=CCc2c[nH]cn2)c2ccc(Cl)cc2)cc1 [Compound 7]	IC50 (human aromatase): 35 µM
	15 µM	> 1000 µM	Cc1ccccc1C(O)(CCc1c[nH]cn1)c1ccccc1C [Compound 6, 4-[3,3-bis(2-methylphenyl)-3-hydroxpropyl]-1H-imidazole]	IC50 (human aromatase): 300 µM
70 µM	4 µM	1000 µM	OC(CCc1c[nH]cn1)(c1ccccc1)c1ccccc1 [Compound 3, 4-(3,3-diphenyl-3-hydroxypropyl)-1H-imidazole]	
60 µM	4 µM	1000 µM	OC(CCc1c[nH]cn1)(c1ccc(Cl)cc1)c1ccc(Cl)cc1 [Compound 2, 4-[3,3-bis(4-chlorophenyl)-3-hydroxypropyl]-1H-imidazole]	
